Assay results: PubChem BioAssay (NCI)
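1) Cells in 96-well plates. 2) Compound, 48 h, 5 concentrations. 3) Linear interpolation between surrounding doses. 4) Unreached endpoint = highest concentration. The concentration for 50% growth inhibition is given as GI50. TGI marks complete inhibition of growth.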

Assays:
Experiment in all cases: inhibition of tumour cell growth, NCI panel, 48 h
MDA-MB-435 = system: MDA-MB-435
OVCAR-3 ovarian = system: OVCAR-3 ovarian
KM12 colon = system: KM12 colon
NCI/ADR-RES ovarian = system: NCI/ADR-RES ovarian
SW-620 colon = system: SW-620 colon
MCF7 breast = system: MCF7 breast
UACC-257 melanoma = system: UACC-257 melanoma
HS 578T breast = system: HS 578T breast
RPMI-8226 leukemia = system: RPMI-8226 leukemia
HOP-92 NSCLC = system: HOP-92 NSCLC

| Compound | GI50 (MDA-MB-435) [µM] | TGI (MDA-MB-435) [µM] | GI50 (OVCAR-3 ovarian) [µM] | TGI (OVCAR-3 ovarian) [µM] | GI50 (KM12 colon) [µM] | TGI (KM12 colon) [µM] | GI50 (NCI/ADR-RES ovarian) [µM] | TGI (NCI/ADR-RES ovarian) [µM] | GI50 (SW-620 colon) [µM] | TGI (SW-620 colon) [µM] | GI50 (MCF7 breast) [µM] | TGI (MCF7 breast) [µM] | GI50 (UACC-257 melanoma) [µM] | TGI (UACC-257 melanoma) [µM] | GI50 (HS 578T breast) [µM] | TGI (HS 578T breast) [µM] | GI50 (RPMI-8226 leukemia) [µM] | TGI (RPMI-8226 leukemia) [µM] | GI50 (HOP-92 NSCLC) [µM] | TGI (HOP-92 NSCLC) [µM] |
| --- | --- | --- | --- | --- | --- | --- | --- | --- | --- | --- | --- | --- | --- | --- | --- | --- | --- | --- | --- | --- |
| Nc1ccc(/C=C/c2ccc3ncccc3c2)cc1 | > 100 | > 100 | > 100 | > 100 | 49.1 | > 100 | > 100 | > 100 | > 100 | > 100 | > 100 | > 100 | > 100 | > 100 | > 100 | > 100 | 6.89 | > 100 | 12.9 | > 100 |
| CCOc1ccc(N(C)c2ccc(/C=C/C3=[N+](C)c4ccccc4C3(C)C)cc2)cc1 | 0.231 | 1.32 | 0.151 | 1.09 | 0.219 | 1.05 | 2.43 | 16.6 | 0.175 | 1.19 | 0.498 | 2.79 | 0.188 | 0.861 | 0.314 | 2 | 0.139 | 0.602 | 0.197 | 0.86 |
| CC(=O)OCC1C(=O)OCC1C(=O)N1Cc2cc3ccccc3nc2C1 (configuration not stated) | – | 11.9 | – | 6.14 | – | 30.4 | – | 7.56 | – | 1.68 | – | 3.14 | – | 8.64 | – | > 86.5 | – | 4.6 | – | 3.77 |
| CCN(Cc1ccc(OC)cc1)c1ccc(CO)c(Cl)c1 | 16.7 | 43.6 | 0.636 | 6.19 | 18.3 | 44.7 | 15 | 49.6 | 1.04 | > 100 | 0.163 | 15.7 | 0.124 | 0.312 | 22.1 | > 86.1 | 6.23 | 46.1 | 2.17 | 20.7 |
| COc1cc2c(c3oc(-c4ccc(O)cc4)c(O)c(=O)c13)CCC(C)(C)O2 | 0.0427 | 0.204 | 0.431 | 27.4 | 0.384 | 23.4 | 0.309 | 0.829 | 0.0872 | 0.31 | 0.381 | > 100 | 0.291 | 0.778 | 0.0903 | – | 0.305 | 0.787 | 0.217 | 0.902 |
| Cn1cc(-c2ccc3nc(-c4ccc(CC(=O)Nc5cc(C(C)(C)C)no5)cc4)cnc3c2)cn1 | 0.0505 | > 3 | 0.0592 | > 3 | 0.00173 | > 3 | 0.0612 | > 3 | 0.0477 | > 3 | – | > 3 | 0.0784 | > 3 | 0.024 | > 3 | 0.056 | > 3 | 0.0495 | > 3 |
| O=C(/C=C\c1ccc(O)c(O)c1)c1ccccc1O | 6.45 | 39.4 | 8.86 | 24.2 | 11.8 | 27.6 | 10.8 | 36.1 | 11.3 | 26.4 | 14.6 | > 100 | 12.8 | 44 | 17.2 | 81.9 | 0.578 | 29.6 | 3.77 | 27.7 |
| COc1ccc(C2=NN(C(N)=S)C(c3ccc4c(c3)OCO4)C2)cc1 (configuration not stated) | 2.39 | 7.26 | 2.07 | 4.72 | 2.27 | 5.19 | 2.9 | 12.6 | 2.29 | 5.92 | 3.23 | > 100 | 3.96 | 68.5 | 2.82 | 7.09 | 1.88 | 6.33 | 2.12 | 8.05 |
| CS(=O)(=O)OCCN(CCOS(C)(=O)=O)c1ccc(C=Nc2ccc(-c3csc(COc4ccccc4)n3)cc2)cc1 | – | 31.6 | – | 15.3 | – | 19.8 | – | 49.7 | – | 52 | – | 81.8 | – | 28.3 | – | > 53.1 | – | 67.5 | – | 35 |
| CCCCn1c(=O)[nH]c(N)c([C@@H]2c3c([nH]c(=O)n(CCCC)c3=O)Oc3ccc4ccccc4c32)c1=O | 1.7 | 3.11 | 1.63 | 2.98 | 1.69 | 3.26 | 2.82 | 8.84 | 0.37 | 1.18 | 2.88 | 24 | 2.41 | 5.78 | 4.55 | 37.1 | 3.48 | 13.5 | 2 | 6.5 |
| O=C1C=C(Nc2ccccc2)c2ccccc2C1=O | 1.93 | 3.7 | 1.96 | 5.27 | 2.94 | 9.17 | 2.48 | 8.82 | 2.1 | 5.33 | 1.88 | 4.3 | 1.79 | 3.25 | 2.57 | 6.32 | 2.24 | 7.49 | 2.73 | 13.2 |
| N#CCCNc1nonc1-c1nc2ccccc2n1CC(=O)c1ccc(N)cc1 | < 0.01 | < 0.0166 | 0.0207 | 0.0549 | < 0.0118 | 1.28 | < 0.01 | 0.0429 | 0.031 | > 100 | < 0.019 | > 100 | – | > 100 | 0.0192 | > 100 | 0.0309 | – | < 0.01 | 0.456 |
| Cc1ccc(N)c(S)c1 | – | 36.1 | – | 44 | – | 36.7 | – | 56.8 | – | 38.7 | – | 38.8 | – | 54.7 | – | > 100 | – | – | – | 30.2 |
| Nc1c(C(=O)Nc2cccc(Cl)c2)sc2nc3c(cc12)C(=O)CCC3 | 0.0563 | 0.284 | 0.305 | > 100 | 0.298 | > 100 | 0.466 | > 100 | 0.351 | > 100 | 0.201 | > 100 | > 100 | > 100 | 0.422 | > 100 | – | – | – | > 100 |
